# Data published in patent US11332472B2, “Substituted piperidines as inhibitors of ubiquitin specific protease 7” (LES LABORATOIRES SERVIER, priority 2017, dated 2022).
# Target: T1, USP7 (Homo sapiens, UniProt Q93009, C315A)
# T1 construct: 0.25 nM His-His-USP7 (aa208-560, [C315A]) was incubated with compound; His-His (N)
# Assay: Inhibition of USP7 by Fluorescence Intensity (FLINT) readings, Ubiquitin-Rhodamine-110 substrate
# Assay type: biochemical
# Settings: 0.25 nM His-His-USP7 (aa208-560, [C315A]); compound 60 minutes at 30° C.; 500 nM Ubiquitin-Rhodamine substrate; 11-point curves
# Method: USP7 activity was measured using Rhodamine-110 c-terminal labelled Ubiquitin as a substrate (Viva Biosciences). Incubation with USP7 results in the release of Rhodamine-110 leading to an increase in fluorescence which can be used in the continuous measurement of USP7 activity.
# The USP7 reactions were performed in a 50 μL volume, in 384 well black solid low binding plates (Corning #3575). The reaction buffer consisted of 100 mM Bicine pH 8.0, 0.01% TritonX 100, 1 mM TCEP, and 10% DMSO.
# 0.25 nM His-His-USP7 (aa208-560, [C315A]) was incubated with compound (final concentration 10% DMSO) for 60 minutes at 30° C. The reaction was then initiated by the addition of 500 nM Ubiquitin-Rhodamine-10 substrate and the plate read every 3 minutes for 21 minutes to measure the release of Rhodamine-110. Fluorescence Intensity (FLINT) readings were measured using a Biomek Neo plate reader (Ex. 485 nm. Em. 535 nm).
# The inhibition of increasing doses of compound was expressed as a percentage reduction in kinetic rate compared to the kinetic rates established between ‘DMSO only’ and ‘total inhibition’ controls (no USP7). The inhibitory concentrations that gave a 50% reduction in kinetic rate (IC50) were determined, from 11-point dose response curves, in XL-Fit using a 4-Parameter Logistic Model (Sigmoidal Dose-Response Model).
# T1 sequence (Q93009 208-560 C315A): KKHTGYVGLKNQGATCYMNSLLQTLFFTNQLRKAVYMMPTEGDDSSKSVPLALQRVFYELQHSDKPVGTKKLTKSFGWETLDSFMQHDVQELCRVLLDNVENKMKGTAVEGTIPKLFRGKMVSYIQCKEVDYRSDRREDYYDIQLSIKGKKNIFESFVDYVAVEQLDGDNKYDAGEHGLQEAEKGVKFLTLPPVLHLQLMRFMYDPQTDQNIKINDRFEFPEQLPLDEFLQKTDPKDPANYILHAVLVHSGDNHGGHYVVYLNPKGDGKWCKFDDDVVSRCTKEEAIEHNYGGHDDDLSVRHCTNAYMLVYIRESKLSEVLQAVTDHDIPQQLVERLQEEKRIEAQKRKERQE
row,IC50,SMILES
1,2.55 µM,"O=C(C1CCCC(O)C1c1ccccc1)N1CCC(O)(Cn2cnc3c(ccn3-c3ccccc3)c2=O)CC1 (single isomer, unassigned) [Example 56, (1S,2S,3S or 1R,2R,3R)-3-[[4-hydroxy-1-[3-hydroxy-2-phenyl-cyclohexanecarbonyl]-4-piperidyl]methyl]-7-phenyl-pyrrolo[2,3-d]pyrimidin-4-one]"
2,28.4 µM,"Cn1ccnc1[C@@H]1CCCC[C@H]1C(=O)N1CCC(O)(Cn2cnc3c(ccn3-c3ccccc3)c2=O)CC1 (single isomer, unassigned) [Example 57, 3-[[4-hydroxy-1-[trans-2-(1-methylimidazol-2-yl)cyclohexanecarbonyl]-4-piperidyl]methyl]-7-phenyl-pyrrolo[2,3-d]pyrimidin-4-one]"
3,10.3 µM,"O=C([C@@H]1CC(F)(F)CC[C@H]1c1ccccc1)N1CCC(O)(Cn2cnc3c(-c4ccccc4)scc3c2=O)CC1 (single isomer, unassigned) [Example 78, 3-[[1-[trans-5,5-difluoro-2-phenyl-cyclohexanecarbonyl]-4-hydroxy-4-piperidyl]methyl]-7-phenyl-thieno[3,4-d]pyrimidin-4-one]"
4,2.57 µM,"COc1ccc(-n2ccc3c(=O)n(CC4(O)CCN(C(=O)C5CCCN5c5ccccc5)CC4)cnc32)cc1 (centres unmarked) [Example 11, 3-[[4-hydroxy-1-(1-phenylpyrrolidine-2-carbonyl)-4-piperidyl]methyl]-7-(4-methoxyphenyl)pyrrolo[2,9-d]pyrimidin-4-one]"
5,0.456 µM,"CC(C)n1ccc2c(=O)n(CC3(O)CCN(C(=O)[C@@H]4CCC(F)(F)C[C@H]4c4ccccc4)CC3)cnc21 (single isomer, unassigned) [Example 113, 3-[[1-[trans-4,4-difluoro-2-phenyl-cyclohexanecarbonyl]-4-hydroxy-4-piperidyl]methyl]-7-isopropyl-pyrrolo[2,3-d]pyrimidin-4-one]"
6,0.268 µM,"CC1(C)CC[C@@H](C(=O)N2CCC(O)(Cn3cnc4c(-c5ccccc5)scc4c3=O)CC2)[C@H](c2ccccc2)C1 (single isomer, unassigned) [Example 99, 3-[[1-(trans-4,4-dimethyl-2-phenyl-cyclohexanecarbonyl)-4-hydroxy-4-piperidyl]methyl]-7-phenyl-thieno[3,4-d]pyrimidin-4-one]"
7,1.59 µM,"O=C(C1CCCCC1c1ccc(F)cc1)N1CCC(O)(Cn2cnc3c(ccn3-c3ccccc3)c2=O)CC1 (single isomer, unassigned) [Example 42, 3-[[1-[(trans-2-(4-fluorophenyl)cyclohexanecarbonyl]-4-hydroxy-4-piperidyl]methyl]-7-phenyl-pyrrolo[2,3-d]pyrimidin-4-one]"
8,0.086 µM,"COc1ccc(-n2ccc3c(=O)n(CC4(O)CCN(C(=O)[C@@H]5CCCO[C@H]5c5ccccc5)CC4)cnc32)cc1 (single isomer, unassigned) [Example 45, 3-[[4-hydroxy-1-[trans-2-phenyltetrahydropyran-3-carbonyl]-4-piperidyl]methyl]-7-(4-methoxyphenyl)pyrrolo[2,3-d]pyrimidin-4-one]"
9,0.632 µM,"O=C([C@@H]1CCC(F)(F)C[C@H]1c1cscn1)N1CCC(O)(Cn2cnc3c(-c4ccccc4)scc3c2=O)CC1 (single isomer, unassigned) [Example 83, 3-[[1-[trans-4,4-difluoro-2-thiazol-4-yl-cyclohexanecarbonyl]-4-hydroxy-4-piperidyl]methyl]-7-phenyl-thieno[3,4-d]pyrimidin-4-one]"
10,4.64 µM,"COc1ccc(-n2ccc3c(=O)n(CC4(O)CCN(C(=O)[C@@H]5CCC(=O)N(C)[C@H]5c5ccccc5)CC4)cnc32)cc1 (single isomer, unassigned) [Example 118, 3-{[4-hydroxy-1-(trans-1-methyl-6-oxo-2-phenylpiperidine-3-carbonyl)piperidin-4-yl]methyl}-7-(4-methoxyphenyl)-3,7-dihydro-4H-pyrrolo[2,3-d]pyrimidin-4-one]"
11,0.171 µM,"O=C([C@@H]1CCCC[C@H]1c1ccccc1)N1CCC(O)(Cn2cnc3cccnc3c2=O)CC1 (relative stereo) [Example 93, 3-[[4-hydroxy-1-(trans-2-phenylcyclohexanecarbonyl)-4-piperidyl]methyl]pyrido[3,2-d]pyrimidin-4-one]"
12,0.439 µM,"Cn1ccc2c(=O)n(CC3(O)CCN(C(=O)[C@@H]4CCCC[C@H]4c4ccsc4)CC3)cnc21 (relative stereo) [Example 2, 3-[[4-hydroxy-1-[trans-2-(3-thienyl)cyclohexanecarbonyl]-4-piperidyl]methyl]-7-methyl-pyrrolo[2,3-d]pyrimidin-4-one]"
13,0.102 µM,"COc1ccc(C(=O)Nc2ccc3ncn(CC4(O)CCN(C(=O)[C@@H]5CCCC[C@H]5c5ccccc5)CC4)c(=O)c3n2)cc1 (relative stereo) [Example 107, N-[3-[[4-hydroxy-1-(trans-2-phenylcyclohexanecarbonyl)-4-piperidyl]methyl]-4-oxo-pyrido[3,2-d]pyrimidin-6-yl]-4-methoxy-benzamide]"
14,0.162 µM,"O=C([C@@H]1CCC(F)(F)C[C@H]1c1cccs1)N1CCC(O)(Cn2cnc3c(ccn3-c3ccccc3)c2=O)CC1 (relative stereo) [Example 71, 3-[[1-[trans-4,4-difluoro-2-(2-thienyl)cyclohexanecarbonyl]-4-hydroxy-4-piperidyl]methyl]-7-phenyl-pyrrolo[2,3-d]pyrimidin-4-one]"
15,0.0838 µM,"COc1ccc(-n2ccc3c(=O)n(CC4(O)CCN(C(=O)[C@@H]5CCC(F)(F)C[C@H]5c5cccs5)CC4)cnc32)cc1 (single isomer, unassigned) [Example 73, 3-[[1-[trans-4,4-difluoro-2-(2-thienyl)cyclohexanecarbonyl]-4-hydroxy-4-piperidyl]methyl]-7-(4-methoxyphenyl)pyrrolo[2,3-d]pyrimidin-4-one]"
16,0.0723 µM,"COc1ccc(-n2ccc3c(=O)n(CC4(O)CCN(C(=O)[C@@H]5C(C)=CCC[C@H]5c5ccsc5)CC4)cnc32)cc1 (single isomer, unassigned) [Example 61, 3-[[4-hydroxy-1-[trans-2-methyl-6-(3-thienyl)cyclohex-2-ene-1-carbonyl]-4-piperidyl]methyl]-7-(4-methoxyphenyl)pyrrolo[2,3-d]pyrimidin-4-one]"
17,76.3 µM,"CCn1cc([C@@H]2CC(F)(F)CC[C@H]2C(=O)N2CCC(O)(Cn3cnc4c(-c5ccccc5)scc4c3=O)CC2)cn1 (single isomer, unassigned) [Example 81, 3-[[1-[trans-2-(1-ethylpyrazol-4-yl)-4,4-difluoro-cyclohexanecarbonyl]-4-hydroxy-4-piperidyl]methyl]-7-phenyl-thieno[3,4-d]pyrimidin-4-one]"
18,9.23 µM,"COc1ccc(-n2ccc3c(=O)n(CC4(O)CCN(C(=O)[C@@H]5CCCC[C@H]5c5nccn5C)CC4)cnc32)cc1 (single isomer, unassigned) [Example 70, 3-[[4-hydroxy-1-[trans-2-(1-methylimidazol-2-yl)cyclohexanecarbonyl]-4-piperidyl]methyl]-7-(4-methoxyphenyl)pyrrolo[2,3-d]pyrimidin-4-one]"
19,0.685 µM,"O=C([C@@H]1CCO[C@H]1c1ccccc1)N1CCC(O)(Cn2cnc3c(ccn3-c3ccccc3)c2=O)CC1 (relative stereo) [Example 46, 3-[[4-hydroxy-1-[trans-2-phenyltetrahydrofuran-3-carbonyl]-4-piperidyl]methyl]-7-phenyl-pyrrolo[2,3-d]pyrimidin-4-one]"
20,2.97 µM,"COc1ccc(-n2ccc3c(=O)n(CC4(O)CCN(C(=O)[C@@H]5CCCC[C@H]5n5cccc5)CC4)cnc32)cc1 (single isomer, unassigned) [Example 16, 3-[[4-hydroxy-1-[trans-2-pyrrol-1-ylcyclohexanecarbonyl]-4-piperidyl]methyl]-7-(4-methoxyphenyl)pyrrolo[2,3-d]pyrimidin-4-one]"
21,0.57 µM,"O=C([C@@H]1CCCC[C@H]1n1ccnc1)N1CCC(O)(Cn2cnc3c(ccn3-c3ccccc3)c2=O)CC1 (single isomer, unassigned) [Example 50, 3-[[4-hydroxy-1-[trans-2-imidazol-1-ylcyclohexanecarbonyl]-4-piperidyl]methyl]-7-phenyl-pyrrolo[2,3-d]pyrimidin-4-one]"
22,0.413 µM,"COc1ccc(-n2ccc3c(=O)n(CC4(O)CCN(C(=O)[C@@H]5CCCC[C@H]5n5ccnc5)CC4)cnc32)cc1 (single isomer, unassigned) [Example 48, 3-[[4-hydroxy-1-[trans-2-imidazol-1-ylcyclohexanecarbonyl]-4-piperidyl]methyl]-7-(4-methoxyphenyl)pyrrolo[2,3-d]pyrimidin-4-one]"
23,1.01 µM,"O=C([C@@H]1CCCC[C@H]1c1ccccc1)N1CCC(O)(Cn2cnc3c(ccn3Cc3cccnc3)c2=O)CC1 (relative stereo) [Example 109, 3-[[4-hydroxy-1-(trans-2-phenylcyclohexanecarbonyl)-4-piperidyl]methyl]-7-(3-pyridylmethyl)pyrrolo[2,3-d]pyrimidin-4-one]"
